{"source": "ChEMBL document CHEMBL3046274", "about": "“Toxicity of imidacloprid to developmental stages of Rhynchophorus ferrugineus (Curculionidae: Coleoptera): Laboratory and field tests” (Crop Prot, 2006)", "key": {"[1]": {"system": "Rhynchophorus ferrugineus", "assay": "Pesticidal activity against Rhynchophorus ferrugineus (red palm weevil) larvae assessed as mortality at 2 ppm, po at 24 hr post-treatment relative to control", "format": "functional"}, "[2]": {"system": "Rhynchophorus ferrugineus", "assay": "Pesticidal activity against Rhynchophorus ferrugineus (red palm weevil) cocoons assessed as time required for total mortality at 2.5 ml/l administered by dipping for 5 secs", "format": "functional"}, "[3]": {"system": "Rhynchophorus ferrugineus", "assay": "Pesticidal activity against Rhynchophorus ferrugineus (red palm weevil) larvae assessed as mortality at 300 ppm administered topically at 36 hr post-treatment", "format": "functional"}, "[4]": {"system": "Rhynchophorus ferrugineus", "assay": "Pesticidal activity against Rhynchophorus ferrugineus (red palm weevil) larvae assessed as mortality at 100 ppm administered topically at 36 hr post-treatment", "format": "functional"}, "[5]": {"system": "Rhynchophorus ferrugineus", "assay": "Pesticidal activity against Rhynchophorus ferrugineus (red palm weevil) cocoon assessed as mortality at 0.5 ppm administered by dipping for 3 min measured at 48 hr post-treatment relative to control", "format": "functional"}, "[6]": {"system": "Rhynchophorus ferrugineus", "assay": "Contact toxicity against Rhynchophorus ferrugineus (red palm weevil) adults assessed as time required for 50% reversible knockdown at 1.5 ml/l for 2 min", "format": "functional"}, "[7]": {"system": "Rhynchophorus ferrugineus", "assay": "Pesticidal activity against adult Rhynchophorus ferrugineus (red palm weevil) assessed as mortality at 1.5 ppm, po at 114 hr post-treatment relative to control", "format": "functional"}, "[8]": {"system": "Rhynchophorus ferrugineus", "assay": "Pesticidal activity against adult Rhynchophorus ferrugineus (red palm weevil) assessed as mortality at 1.5 ppm, po at 48 hr post-treatment relative to control", "format": "functional"}, "[9]": {"system": "Rhynchophorus ferrugineus", "assay": "Pesticidal activity against adult Rhynchophorus ferrugineus (red palm weevil) infested date palm tree assessed as mortality of collected live stage at 20 ml/4l of water applied through soil-drench irrigation measured after 3 weeks relative to control", "format": "functional"}, "[10]": {"system": "Rhynchophorus ferrugineus", "assay": "Pesticidal activity against Rhynchophorus ferrugineus (red palm weevil) cocoon assessed as mortality at 20 ppm administered by dipping for 3 min measured at 90 hr post-treatment relative to control", "format": "functional"}, "[11]": {"system": "Rhynchophorus ferrugineus", "assay": "Pesticidal activity against Rhynchophorus ferrugineus (red palm weevil) larvae assessed as mortality at 4 ppm, po at 48 hr post-treatment relative to control", "format": "functional"}, "[12]": {"system": "Rhynchophorus ferrugineus", "assay": "Pesticidal activity against Rhynchophorus ferrugineus (red palm weevil) larvae assessed as mortality at 1 ppm, po at 24 hr post-treatment relative to control", "format": "functional"}, "[13]": {"system": "Rhynchophorus ferrugineus", "assay": "Pesticidal activity against Rhynchophorus ferrugineus (red palm weevil) cocoons assessed as time required for total mortality at 2.5 ml/l administered by dipping for 10 secs", "format": "functional"}, "[14]": {"system": "Rhynchophorus ferrugineus", "assay": "Contact toxicity against Rhynchophorus ferrugineus (red palm weevil) adults assessed as time required for 50% mortality at 3.5 ml/l for 5 min", "format": "functional"}, "[15]": {"system": "Rhynchophorus ferrugineus", "assay": "Pesticidal activity against Rhynchophorus ferrugineus (red palm weevil) cocoons assessed as time required for total mortality at 3.5 ml/l administered by dipping for 10 secs", "format": "functional"}, "[16]": {"system": "Rhynchophorus ferrugineus", "assay": "Contact toxicity against Rhynchophorus ferrugineus (red palm weevil) adults assessed as time required for 100% mortality at 1.5 ml/l for 2 min", "format": "functional"}, "[17]": {"system": "Rhynchophorus ferrugineus", "assay": "Pesticidal activity against Rhynchophorus ferrugineus (red palm weevil) larvae assessed as mortality at 100 ppm administered topically at 72 hr post-treatment", "format": "functional"}, "[18]": {"system": "Rhynchophorus ferrugineus", "assay": "Pesticidal activity against Rhynchophorus ferrugineus (red palm weevil) larvae infested date palm tree assessed as non-feeding status of collected live stage larvae at 20 ml/4l of water applied through soil-drench irrigation measured after 3 weeks relative to control", "format": "functional, organism-based"}, "[19]": {"system": "Rhynchophorus ferrugineus", "assay": "Pesticidal activity against Rhynchophorus ferrugineus (red palm weevil) cocoon assessed as mortality at 20 ppm administered by dipping for 3 min measured at 24 hr post-treatment relative to control", "format": "functional"}, "[20]": {"system": "Rhynchophorus ferrugineus", "assay": "Pesticidal activity against Rhynchophorus ferrugineus (red palm weevil) larvae assessed as mortality at 2 ppm, po at 18 hr post-treatment relative to control", "format": "functional"}, "[21]": {"system": "Rhynchophorus ferrugineus", "assay": "Pesticidal activity against Rhynchophorus ferrugineus (red palm weevil) larvae assessed as mortality at 2 ppm, po at 114 hr post-treatment relative to control", "format": "functional"}, "[22]": {"system": "Rhynchophorus ferrugineus", "assay": "Pesticidal activity against Rhynchophorus ferrugineus (red palm weevil) larvae infested date palm trees assessed as mortality at 2.5 ml/l applied through soil-drench irrigation 1 week after infestation measured on day 30 post-treatment relative to control", "format": "functional"}, "[23]": {"system": "Rhynchophorus ferrugineus", "assay": "Pesticidal activity against adult Rhynchophorus ferrugineus (red palm weevil) assessed as mortality at 500 ppm administered topically at 36 hr post-treatment", "format": "functional"}, "[24]": {"system": "Rhynchophorus ferrugineus", "assay": "Pesticidal activity against adult Rhynchophorus ferrugineus (red palm weevil) assessed as mortality at 1000 ppm administered topically at 72 hr post-treatment", "format": "functional"}, "[25]": {"system": "Rhynchophorus ferrugineus", "assay": "Pesticidal activity against Rhynchophorus ferrugineus (red palm weevil) cocoon assessed as mortality at 1 ppm administered by dipping for 3 min measured at 18 hr post-treatment relative to control", "format": "functional"}, "[26]": {"system": "Rhynchophorus ferrugineus", "assay": "Pesticidal activity against adult Rhynchophorus ferrugineus (red palm weevil) assessed as time required for reversible knockdown at 3.5 ml/l administered topically", "format": "functional"}, "[27]": {"system": "Rhynchophorus ferrugineus", "assay": "Pesticidal activity against Rhynchophorus ferrugineus (red palm weevil) larvae assessed as mortality at 0.5 ppm, po at 48 hr post-treatment relative to control", "format": "functional"}, "[28]": {"system": "Rhynchophorus ferrugineus", "assay": "Pesticidal activity against Rhynchophorus ferrugineus (red palm weevil) larvae assessed as mortality at 1 ppm, po at 48 hr post-treatment relative to control", "format": "functional"}, "[29]": {"system": "Rhynchophorus ferrugineus", "assay": "Contact toxicity against Rhynchophorus ferrugineus (red palm weevil) adults assessed as time required for 100% mortality at 2.5 ml/l for 2 min", "format": "functional"}, "[30]": {"system": "Rhynchophorus ferrugineus", "assay": "Pesticidal activity against Rhynchophorus ferrugineus (red palm weevil) larvae assessed as mortality at 1000 ppm administered topically at 36 hr post-treatment", "format": "functional"}, "[31]": {"system": "Rhynchophorus ferrugineus", "assay": "Pesticidal activity against Rhynchophorus ferrugineus (red palm weevil) larvae infested date palm tree assessed as reduction in mandibles movement of collected live stage larvae at 20 ml/4l of water applied through soil-drench irrigation measured after 3 weeks relative to control", "format": "functional, organism-based"}, "[32]": {"system": "Rhynchophorus ferrugineus", "assay": "Pesticidal activity against Rhynchophorus ferrugineus (red palm weevil) larvae assessed as mortality at 6 ppm, po at 48 hr post-treatment relative to control", "format": "functional"}, "[33]": {"system": "Rhynchophorus ferrugineus", "assay": "Pesticidal activity against Rhynchophorus ferrugineus (red palm weevil) cocoon assessed as mortality at 1 ppm administered by dipping for 3 min measured at 24 hr post-treatment relative to control", "format": "functional"}, "[34]": {"system": "Rhynchophorus ferrugineus", "assay": "Contact toxicity against Rhynchophorus ferrugineus (red palm weevil) adults assessed as time required for 50% mortality at 2.5 ml/l for 5 min", "format": "functional"}, "[35]": {"system": "Rhynchophorus ferrugineus", "assay": "Pesticidal activity against Rhynchophorus ferrugineus (red palm weevil) larvae assessed as mortality at 0.5 ppm, po at 114 hr post-treatment relative to control", "format": "functional"}, "[36]": {"system": "Rhynchophorus ferrugineus", "assay": "Pesticidal activity against Rhynchophorus ferrugineus (red palm weevil) cocoon assessed as mortality at 20 ppm administered by dipping for 3 min measured at 18 hr post-treatment relative to control", "format": "functional"}, "[37]": {"system": "Rhynchophorus ferrugineus", "assay": "Contact toxicity against Rhynchophorus ferrugineus (red palm weevil) adults assessed as time required for 50% reversible knockdown at 1.5 ml/l for 5 min", "format": "functional"}, "[38]": {"system": "Rhynchophorus ferrugineus", "assay": "Pesticidal activity against Rhynchophorus ferrugineus (red palm weevil) cocoon assessed as mortality at 1 ppm administered by dipping for 3 min measured at 72 hr post-treatment relative to control", "format": "functional"}, "[39]": {"system": "Rhynchophorus ferrugineus", "assay": "Pesticidal activity against Rhynchophorus ferrugineus (red palm weevil) larvae assessed as mortality at 100 ppm administered topically at 48 hr post-treatment", "format": "functional"}, "[40]": {"system": "Rhynchophorus ferrugineus", "assay": "Pesticidal activity against adult Rhynchophorus ferrugineus (red palm weevil) assessed as mortality at 500 ppm administered topically at 48 hr post-treatment", "format": "functional"}, "[41]": {"system": "Rhynchophorus ferrugineus", "assay": "Pesticidal activity against adult Rhynchophorus ferrugineus (red palm weevil) assessed as mortality at 2 ppm, po at 48 hr post-treatment relative to control", "format": "functional"}}, "note": "The source made the active and inactive calls. The calls are words filed in the database; no cut-off is given here."}
{"smiles": "O=[N+]([O-])/N=C1\\NCCN1Cc1ccc(Cl)nc1", "note": "[IMIDACLOPRID]", "values": [{"measurement": "Activity", "setting": "[1]", "value": 100, "unit": "%"}, {"measurement": "Time", "setting": "[2]", "value": 9.5, "unit": "days"}, {"measurement": "Activity", "setting": "[3]", "value": 0, "unit": "%"}, {"measurement": "Activity", "setting": "[4]", "value": 0, "unit": "%"}, {"measurement": "Activity", "setting": "[5]", "value": 0, "unit": "%"}, {"measurement": "Time", "setting": "[6]", "value": 3.2, "unit": "days"}, {"measurement": "Activity", "setting": "[7]", "value": 100, "unit": "%"}, {"measurement": "Activity", "setting": "[8]", "value": 73.2, "unit": "%"}, {"measurement": "Activity", "setting": "[9]", "value": 100, "unit": "%"}, {"measurement": "Activity", "setting": "[10]", "value": 72.2, "unit": "%"}, {"measurement": "Activity", "setting": "[11]", "value": 100, "unit": "%"}, {"measurement": "Activity", "setting": "[12]", "value": 0, "unit": "%"}, {"measurement": "Time", "setting": "[13]", "value": 9.6, "unit": "days"}, {"measurement": "Time", "setting": "[14]", "value": 2.2, "unit": "days"}, {"measurement": "Time", "setting": "[15]", "value": 6, "unit": "days"}, {"measurement": "Time", "setting": "[16]", "value": 18, "unit": "days"}, {"measurement": "Activity", "setting": "[17]", "value": 0, "unit": "%"}, {"measurement": "Activity", "setting": "[18]", "value": "Active"}, {"measurement": "Activity", "setting": "[19]", "value": 0, "unit": "%"}, {"measurement": "Activity", "setting": "[20]", "value": 72.2, "unit": "%"}, {"measurement": "Activity", "setting": "[21]", "value": 100, "unit": "%"}, {"measurement": "Activity", "setting": "[22]", "value": 94.4, "unit": "%"}, {"measurement": "Activity", "setting": "[23]", "value": 72.2, "unit": "%"}, {"measurement": "Activity", "setting": "[24]", "value": 100, "unit": "%"}, {"measurement": "Activity", "setting": "[25]", "value": 0, "unit": "%"}, {"measurement": "Time", "setting": "[26]", "value": 1, "unit": "days"}, {"measurement": "Activity", "setting": "[27]", "value": 38.9, "unit": "%"}, {"measurement": "Activity", "setting": "[28]", "value": 38.9, "unit": "%"}, {"measurement": "Time", "setting": "[29]", "value": 13.1, "unit": "days"}, {"measurement": "Activity", "setting": "[30]", "value": 72.2, "unit": "%"}, {"measurement": "Activity", "setting": "[31]", "value": "Active"}, {"measurement": "Activity", "setting": "[32]", "value": 100, "unit": "%"}, {"measurement": "Activity", "setting": "[33]", "value": 0, "unit": "%"}, {"measurement": "Time", "setting": "[34]", "value": 3.2, "unit": "days"}, {"measurement": "Activity", "setting": "[35]", "value": 100, "unit": "%"}, {"measurement": "Activity", "setting": "[36]", "value": 0, "unit": "%"}, {"measurement": "Time", "setting": "[37]", "value": 3.2, "unit": "days"}, {"measurement": "Activity", "setting": "[38]", "value": 0, "unit": "%"}, {"measurement": "Activity", "setting": "[39]", "value": 0, "unit": "%"}, {"measurement": "Activity", "setting": "[40]", "value": 72.2, "unit": "%"}, {"measurement": "Activity", "setting": "[41]", "value": 100, "unit": "%"}]}
